Results: paper PMC6917776, “Discovery of a chemical probe for PRDM9” (Nature Communications, 2019)
Values joined by “and” are separate entries in the source; they are usually repeats but may differ in a detail not shown here. Equal entries are not always repeated. Where two headings read alike, the source gives them in different places.

Biological target: T1, PRDM7 (Homo sapiens, UniProt Q9NQW5)
T1 sequence (Q9NQW5 1-492): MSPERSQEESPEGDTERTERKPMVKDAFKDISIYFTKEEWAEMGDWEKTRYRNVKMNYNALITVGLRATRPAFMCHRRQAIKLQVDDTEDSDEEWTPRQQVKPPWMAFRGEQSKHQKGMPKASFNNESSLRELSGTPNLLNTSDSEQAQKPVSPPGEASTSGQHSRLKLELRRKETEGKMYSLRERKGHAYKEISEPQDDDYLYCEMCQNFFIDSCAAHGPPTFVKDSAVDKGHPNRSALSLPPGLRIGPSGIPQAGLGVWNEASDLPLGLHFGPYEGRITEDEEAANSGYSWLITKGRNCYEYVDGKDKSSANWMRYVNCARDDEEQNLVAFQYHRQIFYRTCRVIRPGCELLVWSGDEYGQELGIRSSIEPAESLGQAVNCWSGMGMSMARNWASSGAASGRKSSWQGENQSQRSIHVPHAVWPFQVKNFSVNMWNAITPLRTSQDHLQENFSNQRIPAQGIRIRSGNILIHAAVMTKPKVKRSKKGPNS
Assay: PRDM7 methyltransferase activity assay (3H-SAM scintillation proximity assay)
Assay type: biochemical
Protocol: Methyltransferase activity assays for PRDM9 (amino acids: 195–415) were performed by monitoring the incorporation of tritium-labeled methyl group from ^3H-SAM to H3 (1–25) peptide using scintillation proximity assay (SPA). The enzymatic reactions were performed at 23 °C with 30 min incubation in 20 mM Tris-HCl (pH 7.5), 5 mM DTT, 0.01% Triton X-100 and 1% DMSO containing 71 μM of SAM (5 μM of ^3H-SAM), 4 μM of biotinylated H3 (1–25) peptide and 5 nM of PRDM9. For PRDM7, reactions were performed at 23 °C with 90 min incubation in 20 mM BTP pH 9.0, 5 mM DTT, 0.01% Triton X-100 and 1% DMSO containing 900 μM of SAM (5 μM of ^3H-SAM), 4 μM of biotinylated H3 (1–25) peptide and 100 nM of enzyme. Compounds were titrated from 3 nM to 50 μM and from 200 nM to 200 μM for PRDM9 and PRDM7, respectively. To stop the reactions, 10 μL of 7.5 M guanidine hydrochloride was added to 10 μL of reaction mixture, followed by 60 μL of buffer (20 mM Tris, pH 8.0), mixed, and transferred to a 384-well streptavidin coated Flash-plate. After mixing, the mixtures in Flash-plate were incubated for 2 h, and the CPM counts were measured using TopCount plate reader. All enzymatic reactions were performed in triplicate, and IC50 values were determined by fitting the data to Four Parameter Logistic equation using the GraphPad Prism software.

[1] = 0.195312 µM compound, 0.195312 µM
[2] = 0.195312 µM compound, read-out: PRDM7-Activity %, Average (n=3)
[3] = 0.195312 µM compound, read-out: PRDM7-Activity %, single experiments
[4] = 0.390625 µM compound, 0.390625 µM
[5] = 0.390625 µM compound, read-out: PRDM7-Activity %, Average (n=3)
[6] = 0.390625 µM compound, read-out: PRDM7-Activity %, single experiments
[7] = 0.78125 µM compound, 0.78125 µM
[8] = 0.78125 µM compound, read-out: PRDM7-Activity %, Average (n=3)
[9] = 0.78125 µM compound, read-out: PRDM7-Activity %, single experiments
[10] = 1.5625 µM compound, read-out: PRDM7-Activity %, Average (n=3)
[11] = 1.5625 µM compound, read-out: PRDM7-Activity %, single experiments
[12] = 3.125 µM compound, read-out: PRDM7-Activity %, Average (n=3)
[13] = 3.125 µM compound, read-out: PRDM7-Activity %, single experiments
[14] = 6.25 µM compound, read-out: PRDM7-Activity %, Average (n=3)
[15] = 6.25 µM compound, read-out: PRDM7-Activity %, single experiments
[16] = 12.5 µM compound, read-out: PRDM7-Activity %, Average (n=3)
[17] = 12.5 µM compound, read-out: PRDM7-Activity %, single experiments
[18] = 25 µM compound, read-out: PRDM7-Activity %, Average (n=3)
[19] = 25 µM compound, read-out: PRDM7-Activity %, single experiments
[20] = 50 µM compound, read-out: PRDM7-Activity %, Average (n=3)
[21] = 50 µM compound, read-out: PRDM7-Activity %, single experiments
[22] = 100 µM compound, read-out: PRDM7-Activity %, Average (n=3)
[23] = 100 µM compound, read-out: PRDM7-Activity %, single experiments
[24] = 200 µM compound, read-out: PRDM7-Activity %, Average (n=3)

| Structure (SMILES) | PRDM7-Activity %, single experiments [1] | activity at 0.195312 µM [2] | activity at 0.195312 µM [3] | PRDM7-Activity %, single experiments [4] | activity at 0.390625 µM [5] | activity at 0.390625 µM [6] | PRDM7-Activity %, single experiments [7] | activity at 0.78125 µM [8] | activity at 0.78125 µM [9] | PRDM7-Activity %, single experiments (1.5625 µM compound, 1.5625 µM) | activity at 1.5625 µM [10] | activity at 1.5625 µM [11] | PRDM7-Activity %, single experiments (3.125 µM compound, 3.125 µM) | activity at 3.125 µM [12] | activity at 3.125 µM [13] | PRDM7-Activity %, single experiments (6.25 µM compound, 6.25 µM) | activity at 6.25 µM [14] | activity at 6.25 µM [15] | PRDM7-Activity %, single experiments (12.5 µM compound, 12.5 µM) | activity at 12.5 µM [16] | other results |
| --- | --- | --- | --- | --- | --- | --- | --- | --- | --- | --- | --- | --- | --- | --- | --- | --- | --- | --- | --- | --- | --- |
| COc1cc(OC)cc(-c2noc(N3CCN(C)C4(CCN(c5ccccc5)CC4)C3)n2)c1 [MRK-740-NC] | 100.2% and 97.4% | 99.4% | 101% | 100.3% and 102.2% | 102% | 104% | 94.78% and 94.12% | 92.2% | 87.6% | 107.5% and 100.6% | 102% | 98.2% | 102.8% and 99.77% | 97.8% | 90.9% | 83.67% and 87.1% | 90.6% | 101% | 102.7% and 91.72% | 94.2% | PRDM7 inhibition (in words): no significant PRDM7 inhibition; activity at 12.5 µM [17]: 88.2%; PRDM7-Activity %, single experiments (25 µM compound, 25 µM): 99.4% and 100.5%; activity at 25 µM [18]: 101%; activity at 25 µM [19]: 105%; PRDM7-Activity %, single experiments (50 µM compound, 50 µM): 93.21% and 92.53%; activity at 50 µM [20]: 93%; activity at 50 µM [21]: 93.3%; PRDM7-Activity %, single experiments (100 µM compound, 100 µM): 98.05% and 87.79%; activity at 100 µM [22]: 89.8%; activity at 100 µM [23]: 83.5%; PRDM7-Activity %, single experiments (200 µM compound, 200 µM): 98.85% and 73.14% and 89.14%; activity at 200 µM [24]: 87% |
| COc1cc(OC)cc(-c2noc(N3CCN(C)C4(CCN(c5ccnc(C)c5)CC4)C3)n2)c1 [MRK-740] | 104.6% and 100.9% | 103% | 104% | 104.3% and 107.1% | 105% | 103% | 95.5% and 104.5% | 99.4% | 98.3% | 97.86% and 90.81% | 94.9% | 96.1% | 99.32% and 89.67% | 95.4% | 97.1% | 81.54% and 82.05% | 81.6% | 81.2% | 70.89% and 77.38% | 74.1% | activity at 12.5 µM [17]: 74%; PRDM7-Activity %, single experiments (25 µM compound, 25 µM): 64.86% and 73.52%; activity at 25 µM [18]: 69.3%; activity at 25 µM [19]: 69.4%; activity at 50 µM [20]: 46.3%; activity at 50 µM [21]: 47.1%; PRDM7-Activity %, single experiments (100 µM compound, 100 µM): 28% and 33.38%; activity at 100 µM [22]: 30%; activity at 100 µM [23]: 28.6%; PRDM7-Activity %, single experiments (200 µM compound, 200 µM): 12.96% and 18.48%; activity at 200 µM [24]: 15.8%; activity at 200 µM (200 µM compound, read-out: PRDM7-Activity %, single experiments): 16.1%; IC50 (biotinylated H3 (1–25) peptide): 45 ± 7 µM |
